Assay results as given in patent publication US4525589A, “Isoquinolinesulfonyl derivatives” (Asahi Kasei Kogyo Kabushiki Kaisha, priority 1981, dated 1985).

Experiments:
[1] = tested on: femoral artery; test: Effect on blood flow volume of femoral artery of dog; format: in vivo, dog of mixed breed; settings: 1 mg/Kg intravenous, anesthetized dog; for change in vivo at 1 mg/kg: Canis lupus familiaris, iv, read-out: Increased Blood Flow Volume in Femoral Artery
Experimental: (§1) The effect of the isoquinolinesulfonyl derivatives and the pharmaceutically acceptable acid addition salts of this invention on the vasodilatation of the femoral and vertebral arteries can be measured by anesthetizing a dog of mixed breed weighting 8 to 15 Kg by an intravenous administration of 35 mg/Kg of pentbarbital, providing an acute type probe (a product of Nippon Koden K.K., Japan) with the femoral and vertebral arteries, administering the isoquinolinesulfonyl derivatives and the pharmaceutically acceptable acid addition salts to the femoral vein through a polyethylene tube inserted into the femoral vein side chain and measuring the blood flow volume with an electromagnetic flowmeter (a product of Nippon Koden K.K., Japan, "MF-27"). Among the isoquinolinesulfonyl compounds of Formula (I) of this invention, those with l=0 and the [drawing 37] group show a high action for increasing blood flow and simultaneously a selectivity to vertebral arteries. For example, when 1 mg/Kg of 1-(5-isoquinolinesulfonyl)piperazine, i.e., Compound (35) was intravenously administered, the increased blood flow volumes in the vertebral artery and in the femoral artery were 98% and 65%, respectively. Also the isoquinolinesulfonyl compounds of Formula (I) of this invention with l=1 and one of the R2 and R3 groups=a hydrogen atom show a continuing blood flow increase. With 1 mg/Kg of N-(2-aminoethyl)-5-isoquinolinesulfonamide, i.e., Compound (1), an increase in the blood flow volume in the vertebral artery was continued for at least 30 minutes.
(§2) The effect on the vasodilatation of the femoral and vertebral arteries was measured by anesthetizing a dog of mixed breed weighing 8 to 15 Kg by an intravenous administration of 35 mg/Kg of pentabarbital, providing an acute type probe (a product of Nippon Koden K.K., Japan) with the femoral and vertebral arteries, administering the 5-isoquinolinesulfonyl derivatives and their pharmaceutically acceptable acid addition salts to the femoral vein through a polyethylene tube inserted into the femoral vein side chain and measuring the blood flow volume with an electromagnetic blood flowmeter (a product of Nippon Koden K.K., Japan, "MF-27").

[2] = tested on: vertebral artery; test: Effect on blood flow volume of vertebral artery of dog; format: in vivo, dog of mixed breed; settings: 1 mg/Kg intravenous; for change in vivo at 1 mg/kg: Canis lupus familiaris, read-out: Increased Blood Flow Volume in Vertebral Artery
Experimental: as §1, §2

[3] = Acute toxicity, intravenous administration to male ddY-strain mice; settings: mouse, in vivo
Experimental: The acute toxicity of the 5-isoquinolinesulfonyl derivatives and their pharmaceutically acceptable acid addition salts were measured by giving male ddY-strain mice an intravenous administration.

[4] = tested on: mesenteric artery; test: Relaxation of mesenteric artery (helical strips contracted with KCl, organ bath); set-up: species or system rabbit (home bred, Japanese species); settings: Oryctolagus cuniculus; concentration for 50% relaxation; KCl 15~20 mM contraction; read-out: Relaxation of Mesenteric Artery ED50
Experimental: After a home bred rabbit of a Japanese species weighing about 3 Kg was subjected to bloodletting, resulting in death and then to abdominal incision, the mesenteric artery was taken out, cut into helicoids of 2 mm×25 mm and suspended in a 20 ml organ bath filled with a Krebs-Henseleit solution into which a mixed gas of 95% by volume of O2 and 5% by volume of CO2 was introduced and one end of the artery was connected with an isometric transducer. When a load of 1.5 g was applied to the artery, the contraction and the relaxation of the artery were recorded as a weight on the transducer (a product of Nippon Koden K.K., Japan, "FD Pickup TB-912T"). The relaxation of the mesenteric artery was observed by adding the isoquinolinesulfonyl derivatives and their pharmaceutically acceptable acid addition salts of this invention to the mesenteric artery at the condition of about one half of the maximum contraction with KCl at a KCl concentration of 15~20 mM. When the complete relaxation of the mesenteric artery was designated 100%, the concentration of the isoquinolinesulfonyl derivatives and their pharmaceutically acceptable acid addition salts which brought about a relaxation of 50% is shown in Table 12.

## CC1CN(S(=O)(=O)c2cccc3cnccc23)CCN1 (stereo not shown) [Compound 37]
[1]
  change in vivo at 1 mg/kg: 65%
[2]; anesthetized dog
  change in vivo at 1 mg/kg: 90%
[3]
  LD50: 89 mg/kg

## CCCCN(CCCC)CCCNS(=O)(=O)c1cccc2cnccc12 [Compound 19]
[1]
  change in vivo at 1 mg/kg: 25%
[2]; anesthetized dog
  change in vivo at 1 mg/kg: 20%
[3]
  LD50: 180 mg/kg

## NCCNS(=O)(=O)c1cccc2cnccc12 [Compound (1), N-(2-aminoethyl)-5-isoquinolinesulfonamide]
[4]
  EC50: 5 µM
[2]; dog
  Duration of increase in the blood flow volume in the vertebral artery: at least 30 minutes

## CN1CCN(S(=O)(=O)c2cccc3cnccc23)CC1 [Compound 36]
[1]
  change in vivo at 1 mg/kg: 35%
[2]; anesthetized dog
  change in vivo at 1 mg/kg: 63%
[3]
  LD50: 94 mg/kg

## NCCNS(=O)(=O)c1cccc2cnccc12 [Compound 1]
[1]
  change in vivo at 1 mg/kg: 30%
[2]; anesthetized dog
  change in vivo at 1 mg/kg: 45%
[3]
  LD50: 108 mg/kg

## CNS(=O)(=O)c1cccc2cnccc12 [Compound 25]
[1]
  change in vivo at 1 mg/kg: 38%
[2]; anesthetized dog
  change in vivo at 1 mg/kg: 29%
[3]
  LD50: 137 mg/kg

## CNCCNS(=O)(=O)c1cccc2cnccc12 [Compound (14), N-(2-methylaminoethyl)-5-isoquinolinesulfonamide]
[4]
  EC50: 12 µM

## O=S(=O)(c1cccc2cnccc12)N1CCNCC1 [Compound (35), 1-(5-isoquinolinesulfonyl)piperazine]
[4]
  EC50: 0.6 µM
[1]
  Increased Blood Flow Volume in Femoral Artery: 65%
[2]; anesthetized dog
  Increased Blood Flow Volume in Vertebral Artery: 98%

## O=S(=O)(c1cccc2cnccc12)N1CCNCC1 [Compound 35]
[1]
  change in vivo at 1 mg/kg: 69%
[2]; anesthetized dog
  change in vivo at 1 mg/kg: 98%
[3]
  LD50: 29 mg/kg

## CCCCCCN1CCN(S(=O)(=O)c2cccc3cnccc23)CC1 [Compound (51), 1-(5-isoquinolinesulfonyl)-4-hexylpiperazine]
[4]
  EC50: 19 µM

## CCC(CN)NS(=O)(=O)c1cccc2cnccc12 (stereo not shown) [Compound (7), N-(1-aminomethylpropyl)-5-isoquinolinesulfonamide]
[4]
  EC50: 21 µM

## CC1CN(S(=O)(=O)c2cccc3cnccc23)C(C)CN1 (stereo not shown) [Compound 40]
[1]
  change in vivo at 1 mg/kg: 50%
[2]; anesthetized dog
  change in vivo at 1 mg/kg: 110%
[3]
  LD50: 42 mg/kg

## CC1CNC(Cc2ccccc2)CN1S(=O)(=O)c1cccc2cnccc12 (stereo not shown) [Compound (50), 1-(5-isoquinolinesulfonyl)-2-methyl-5-benzylpiperazine]
[4]
  EC50: 16 µM

## CCCCCCN1CCN(S(=O)(=O)c2cccc3cnccc23)CC1 [Compound 51]
[1]
  change in vivo at 1 mg/kg: 39%
[2]; anesthetized dog
  change in vivo at 1 mg/kg: 68%
[3]
  LD50: 108 mg/kg

## O=C(c1ccco1)N1CCN(S(=O)(=O)c2cccc3cnccc23)CC1 [Compound (61), 1-(5-isoquinolinesulfonyl)-4-furoylpiperazine]
[4]
  EC50: 24 µM

## O=S(=O)(c1cccc2cnccc12)N1CCCC1 [Compound 33]
[1]
  change in vivo at 1 mg/kg: 35%
[2]; anesthetized dog
  change in vivo at 1 mg/kg: 37%
[3]
  LD50: 150 mg/kg

## CN1CCN(S(=O)(=O)c2cccc3cnccc23)CC1 [Compound (36), 1-(5-isoquinolinesulfonyl)-4-methylpiperazine]
[4]
  EC50: 7.7 µM

## CC(C)CC1CN(S(=O)(=O)c2cccc3cnccc23)CCN1 (stereo not shown) [Compound 46]
[1]
  change in vivo at 1 mg/kg: 32%
[2]; anesthetized dog
  change in vivo at 1 mg/kg: 55%
[3]
  LD50: 130 mg/kg

## O=S(=O)(c1cccc2cnccc12)N1CCCC1 [Compound (33), 1-(5-isoquinolinesulfonyl)pyrrolidine]
[4]
  EC50: 11 µM

## O=S(=O)(c1cccc2cnccc12)N1CCN(CC=Cc2ccccc2)CC1 [Compound (59), 1-(5-isoquinolinesulfonyl)-4-cinnamylpiperazine]
[4]
  EC50: 6.8 µM

## NCCCCNS(=O)(=O)c1cccc2cnccc12 [Compound 3]
[1]
  change in vivo at 1 mg/kg: 33%
[2]; anesthetized dog
  change in vivo at 1 mg/kg: 36%
[3]
  LD50: 87 mg/kg

## CC(C)CC1CN(S(=O)(=O)c2cccc3cnccc23)CCN1 (stereo not shown) [Compound (46), 1-(5-isoquinolinesulfonyl)-3-isobutylpiperazine]
[4]
  EC50: 6.5 µM

## CN(CCCNS(=O)(=O)c1cccc2cnccc12)C1CCCCC1 [Compound (22), N-[3-(N-methyl-N-cyclohexylamino)propyl]-5-isoquinolinesulfonamide]
[4]
  EC50: 42 µM

## CN(CCNS(=O)(=O)c1cccc2cnccc12)Cc1ccccc1 [Compound (65), N-[2-(N-methyl-N-benzylamino)ethyl]-5-isoquinolinesulfonamide]
[4]
  EC50: 13 µM

## NCC(NS(=O)(=O)c1cccc2cnccc12)c1ccccc1 (stereo not shown) [Compound (12), N-(2-amino-1-phenylethyl)-5-isoquinolinesulfonamide]
[4]
  EC50: 18 µM

## O=S(=O)(c1cccc2cnccc12)N1CCN(CC=Cc2ccccc2)CC1 [Compound 59]
[1]
  change in vivo at 1 mg/kg: 25%
[2]; anesthetized dog
  change in vivo at 1 mg/kg: 49%
[3]
  LD50: 145 mg/kg

## O=S(=O)(c1cccc2cnccc12)N1CCNC(Cc2ccccc2)C1 (stereo not shown) [Compound (54), 1-(5-isoquinolinesulfonyl)-3-benzylpiperazine]
[4]
  EC50: 11 µM

## NC(CNS(=O)(=O)c1cccc2cnccc12)c1ccccc1 (stereo not shown) [Compound (13), N-(2-amino-2-phenylethyl)-5-isoquinolinesulfonamide]
[4]
  EC50: 25 µM

## O=S(=O)(c1cccc2cnccc12)N1CCCCC1 [Compound (32), 1-(5-isoquinolinesulfonyl)piperidine]
[4]
  EC50: 16 µM

## CC1CN(S(=O)(=O)c2cccc3cnccc23)CCN1 (stereo not shown) [Compound (37), 1-(5-isoquinolinesulfonyl)-3-methylpiperazine]
[4]
  EC50: 4 µM

## CC1NCCN(S(=O)(=O)c2cccc3cnccc23)C1C (stereo not shown) [Compound (41), 1-(5-isoquinolinesulfonyl)-2,3-dimethylpiperazine]
[4]
  EC50: 1.5 µM
